Measured values as given in patent US7718808B2, “Thiazole derivatives” (Kyowa Hakko Kirin Co., Ltd., priority 2003, dated 2010).

Question: Which melting point does the source give for `O=C(CCc1ccccc1)Nc1nc(-c2ccco2)c(C(=O)C2CCOCC2)s1` [Compound 527, N-[4-(2-Furyl)-5-(tetrahydropyran-4-ylcarbonyl)thiazol-2-yl]-3-phenylpropanamide] here?
Answer: 161 to 164 °C

Question: With `O=C(C=Cc1ccccc1)Nc1nc(-c2ccco2)c(C(=O)C2CCOCC2)s1` [Compound 528, N-[4-(2-Furyl)-5-(tetrahydropyran-4-ylcarbonyl)thiazol-2-yl]-3-phenylacrylamide] as the compound, how does the melting point read?
Answer: 253 to 256 °C

Question: With `O=C(COc1ccccc1)Nc1nc(-c2ccco2)c(C(=O)C2CCOCC2)s1` [Compound 529, N-[4-(2-Furyl)-5-(tetrahydropyran-4-ylcarbonyl)thiazol-2-yl]-2-phenoxyacetamide] as the compound, how does the melting point read?
Answer: 148 to 150 °C

Question: Which melting point does the source give for `COCC(=O)Nc1nc(-c2ccco2)c(C(=O)C2CCOCC2)s1` [Compound 530, N-[4-(2-Furyl)-5-(tetrahydropyran-4-ylcarbonyl)thiazol-2-yl]-2-methoxyacetamide] here?
Answer: 148 to 149 °C

Question: Which melting point does the source give for `CCOCC(=O)Nc1nc(-c2ccco2)c(C(=O)C2CCOCC2)s1` [Compound 532, 2-Ethoxy-N-[4-(2-furyl)-5-(tetrahydropyran-4-ylcarbonyl)thiazol-2-yl]acetamide] here?
Answer: 121 to 126 °C

Question: For `CN(C)CC(=O)Nc1nc(-c2ccco2)c(C(=O)C2CCOCC2)s1` [Compound 533, 2-(Dimethylamino)-N-[4-(2-furyl)-5-(tetrahydropyran-4-ylcarbonyl)thiazol-2-yl]acetamide], which melting point is on record?
Answer: 129 to 130 °C

Question: Which melting point does the source give for `COCCN(C)CC(=O)Nc1nc(-c2ccco2)c(C(=O)C2CCOCC2)s1` [Compound 534, N-[4-(2-Furyl)-5-(tetrahydropyran-4-ylcarbonyl)thiazol-2-yl]-2-[N-(2-methoxyethyl)-N-methylamino]acetamide] here?
Answer: 103 to 105 °C

Question: Which melting point does the source give for `O=C(CN1CCCC1)Nc1nc(-c2ccco2)c(C(=O)C2CCOCC2)s1` [Compound 536, N-[4-(2-Furyl)-5-(tetrahydropyran-4-ylcarbonyl)thiazol-2-yl]-2-(1-pyrrolidinyl)acetamide] here?
Answer: 115 to 117 °C

Question: With `COC[C@H]1CCCN1CC(=O)Nc1nc(-c2ccco2)c(C(=O)C2CCOCC2)s1` [Compound 537, N-[4-(2-Furyl)-5-(tetrahydropyran-4-ylcarbonyl)thiazol-2-yl]-2-[(2R)-2-(methoxymethyl)pyrrolidin-1-yl]acetamide] as the compound, how does the melting point read?
Answer: 103 to 104 °C

Question: Which melting point does the source give for `O=C(CN1CCCCC1)Nc1nc(-c2ccco2)c(C(=O)C2CCOCC2)s1` [Compound 542, N-[4-(2-Furyl)-5-(tetrahydropyran-4-ylcarbonyl)thiazol-2-yl]-2-piperidinoacetamide] here?
Answer: 146 to 147 °C

Question: For `O=C(CN1CCC(O)CC1)Nc1nc(-c2ccco2)c(C(=O)C2CCOCC2)s1` [Compound 543, N-[4-(2-Furyl)-5-(tetrahydropyran-4-ylcarbonyl)thiazol-2-yl]-2-(4-hydroxypiperidino)acetamide], which melting point is on record?
Answer: 178 to 180 °C

Question: With `COC1CCN(CC(=O)Nc2nc(-c3ccco3)c(C(=O)C3CCOCC3)s2)CC1` [Compound 545, N-[4-(2-Furyl)-5-(tetrahydropyran-4-ylcarbonyl)thiazol-2-yl]-2-(4-methoxypiperidino)acetamide] as the compound, how does the melting point read?
Answer: 109 to 111 °C

Question: Which melting point does the source give for `CC1(O)CCN(CC(=O)Nc2nc(-c3ccco3)c(C(=O)C3CCOCC3)s2)CC1` [Compound 546, N-[4-(2-Furyl)-5-(tetrahydropyran-4-ylcarbonyl)thiazol-2-yl]-2-(4-hydroxy-4-methylpiperidino)acetamide] here?
Answer: 151 to 153 °C

Question: For `O=C(CN1CCC(N2CCCC2)CC1)Nc1nc(-c2ccco2)c(C(=O)C2CCOCC2)s1` [Compound 551, N-[4-(2-Furyl)-5-(tetrahydropyran-4-ylcarbonyl)thiazol-2-yl]-2-[4-(1-pyrrolidinyl)piperidino]acetamide], which melting point is on record?
Answer: 183 to 184 °C

Question: With `O=C(CN1CCC(N2CCCCC2)CC1)Nc1nc(-c2ccco2)c(C(=O)C2CCOCC2)s1` [Compound 552, N-[4-(2-Furyl)-5-(tetrahydropyran-4-ylcarbonyl)thiazol-2-yl]-2-(4-piperidinopiperidino)acetamide] as the compound, how does the melting point read?
Answer: 177 to 179 °C

Question: Which melting point does the source give for `O=C(CN1CCC(N2CCOCC2)CC1)Nc1nc(-c2ccco2)c(C(=O)C2CCOCC2)s1` [Compound 553, N-[4-(2-Furyl)-5-(tetrahydropyran-4-ylcarbonyl)thiazol-2-yl]-2-(4-morpholinopiperidino)acetamide] here?
Answer: 193 to 195 °C

Question: For `O=C(CN1CCC2(CC1)OCCO2)Nc1nc(-c2ccco2)c(C(=O)C2CCOCC2)s1` [Compound 554, 2-(1,4-Dioxa-8-azaspiro[4.5]decan-8-yl)-N-[4-(2-furyl)-5-(tetrahydropyran-4-ylcarbonyl)thiazol-2-yl]acetamide], which melting point is on record?
Answer: 186 to 187 °C

Question: Which melting point does the source give for `CN1CCN(CC(=O)Nc2nc(-c3ccco3)c(C(=O)C3CCOCC3)s2)CC1` [Compound 562, N-[4-(2-Furyl)-5-(tetrahydropyran-4-ylcarbonyl)thiazol-2-yl]-2-(4-methylpiperazin-1-yl)acetamide] here?
Answer: 106 to 112 °C

Question: For `CC(C)(O)CN1CCN(CC(=O)Nc2nc(-c3ccco3)c(C(=O)C3CCOCC3)s2)CC1` [Compound 565, N-[4-(2-Furyl)-5-(tetrahydropyran-4-ylcarbonyl)thiazol-2-yl]-2-[4-(2-hydroxy-2-methylpropyl)piperazin-1-yl]acetamide], which melting point is on record?
Answer: 106 to 108 °C

Question: Which melting point does the source give for `COC1(CN2CCN(CC(=O)Nc3nc(-c4ccco4)c(C(=O)C4CCOCC4)s3)CC2)CC1` [Compound 567, N-[4-(2-Furyl)-5-(tetrahydropyran-4-ylcarbonyl)thiazol-2-yl]-2-{4-[(1-methoxycyclopropyl)methyl]piperazin-1-yl}acetamide] here?
Answer: 155 to 157 °C

Question: With `CN1CCCN(CC(=O)Nc2nc(-c3ccco3)c(C(=O)C3CCOCC3)s2)CC1` [Compound 576, N-[4-(2-Furyl)-5-(tetrahydropyran-4-ylcarbonyl)thiazol-2-yl]-2-(4-methyl-1,4-diazepan-1-yl)acetamide] as the compound, how does the melting point read?
Answer: 94 to 96 °C

Question: Which melting point does the source give for `O=C(CNC12CC3CC(CC(C3)C1)C2)Nc1nc(-c2ccco2)c(C(=O)C2CCOCC2)s1` [Compound 577, N-[4-(2-Furyl)-5-(tetrahydropyran-4-ylcarbonyl)thiazol-2-yl]-2-(adamantan-1-ylamino)acetamide] here?
Answer: 168 to 170 °C

Question: For `O=C(CNC12CC3CC(CC(O)(C3)C1)C2)Nc1nc(-c2ccco2)c(C(=O)C2CCOCC2)s1` [Compound 578, N-[4-(2-Furyl)-5-(tetrahydropyran-4-ylcarbonyl)thiazol-2-yl]-2-(3-hydroxyadamantan-1-ylamino)acetamide], which melting point is on record?
Answer: 176 to 178 °C

Question: With `CCOC(=O)Nc1nc(-c2ccco2)c(C(=O)C2CCOCC2)s1` [Compound 581, Ethyl N-[4-(2-furyl)-5-(tetrahydropyran-4-ylcarbonyl)thiazol-2-yl]carbamate] as the compound, how does the melting point read?
Answer: 152 to 153 °C

Question: With `O=C(Nc1nc(-c2ccco2)c(C(=O)C2CCSCC2)s1)c1ccncc1` [Compound 589, N-[4-(2-Furyl)-5-(tetrahydrothiopyran-4-ylcarbonyl)thiazol-2-yl]pyridine-4-carboxamide] as the compound, how does the melting point read?
Answer: 203 to 210 °C

Question: Which melting point does the source give for `Cc1ccc(-c2nc(NC(=O)c3ccncc3)sc2-c2ccncc2)o1` [Compound 601, N-[4-(5-Methylfuran-2-yl)-5-(4-pyridyl)thiazol-2-yl]pyridine-4-carboxamide] here?
Answer: 274 to 276 °C

Question: For `Cc1ccoc1-c1nc(NC(=O)c2ccncc2)sc1-c1ccncc1` [Compound 602, N-[4-(3-Methylfuran-2-yl)-5-(4-pyridyl)thiazol-2-yl]pyridine-4-carboxamide], which melting point is on record?
Answer: 254 to 257 °C

Question: With `O=C(Nc1nc(-c2occc2-c2ccccc2)c(-c2ccncc2)s1)c1ccncc1` [Compound 603, N-[4-(3-Phenylfuran-2-yl)-5-(4-pyridyl)thiazol-2-yl]pyridine-4-carboxamide] as the compound, how does the melting point read?
Answer: 190 to 192 °C

Question: With `O=C(Nc1nc(-c2ccoc2)c(-c2ccncc2)s1)c1ccncc1` [Compound 605, N-[4-(3-Furyl)-5-(4-pyridyl)thiazol-2-yl]pyridine-4-carboxamide] as the compound, how does the melting point read?
Answer: 251 to 254 °C

Question: Which melting point does the source give for `O=C(Nc1nc(-c2ccoc2)c(C(=O)c2ccccn2)s1)c1ccncc1` [Compound 608, N-[4-(3-Furyl)-5-(pyridin-2-ylcarbonyl)thiazol-2-yl]pyridine-4-carboxamide] here?
Answer: 264 to 266 °C

Question: Which melting point does the source give for `O=C(Nc1nc(-c2ccoc2)c(C(=O)C2CCOCC2)s1)C1CC1` [Compound 611, N-[4-(3-Furyl)-5-(tetrahydropyran-4-ylcarbonyl)thiazol-2-yl]cyclopropanecarboxamide] here?
Answer: 231 to 232 °C

Question: Which melting point does the source give for `O=C(Nc1nc(-c2ccoc2)c(C(=O)C2CCOCC2)s1)c1ccc(Cl)nc1` [Compound 612, 2-Chloro-N-[4-(3-furyl)-5-(tetrahydropyran-4-ylcarbonyl)thiazol-2-yl]pyridine-5-carboxamide] here?
Answer: 237 to 239 °C

Question: With `Cc1cncc(C(=O)Nc2nc(-c3ccoc3)c(C(=O)C3CCOCC3)s2)c1` [Compound 613, N-[4-(3-Furyl)-5-(tetrahydropyran-4-ylcarbonyl)thiazol-2-yl]-5-methylpyridine-3-carboxamide] as the compound, how does the melting point read?
Answer: 244 to 246 °C

Question: Which melting point does the source give for `Cc1ccc(C(=O)Nc2nc(-c3ccoc3)c(C(=O)C3CCOCC3)s2)cn1` [Compound 614, N-[4-(3-Furyl)-5-(tetrahydropyran-4-ylcarbonyl)thiazol-2-yl]-2-methylpyridine-5-carboxamide] here?
Answer: 217 to 219 °C

Question: For `Cc1cc(C(=O)Nc2nc(-c3ccoc3)c(C(=O)C3CCOCC3)s2)ccn1` [Compound 615, N-[4-(3-Furyl)-5-(tetrahydropyran-4-ylcarbonyl)thiazol-2-yl]-2-methylpyridine-4-carboxamide], which melting point is on record?
Answer: 202 to 204 °C

Question: With `O=C(Nc1nc(-c2ccoc2)c(C(=O)C2CCOCC2)s1)c1ccnc(Cl)c1` [Compound 616, 2-Chloro-N-[4-(3-furyl)-5-(tetrahydropyran-4-ylcarbonyl)thiazol-2-yl]pyridine-4-carboxamide] as the compound, how does the melting point read?
Answer: 202 to 204 °C

Question: With `O=C(Cc1cccnc1)Nc1nc(-c2ccoc2)c(C(=O)C2CCOCC2)s1` [Compound 618, N-[4-(3-Furyl)-5-(tetrahydropyran-4-ylcarbonyl)thiazol-2-yl]-2-(3-pyridyl)acetamide] as the compound, how does the melting point read?
Answer: 195 to 197 °C
